Target: T1, synthetic Aβ1-42 aggregates (Homo sapiens, UniProt P05067)
T1 construct: synthetic Aβ1-42 aggregates
Assay: FCS measurement of association of the probe Aβ1-42-Cy2 to Aβ1-42 aggregates in the presence of a suspected active substance (screening model)
Type: biochemical
Text: A screening method for detecting active substances for the treatment of diseases associated with pathological protein depositions, which is analogous with the method according to the invention, is based on the fact that the association of substructures of the pathological protein depositions, structures forming pathological protein depositions, structures corresponding to pathological protein depositions and/or pathological protein depositions to substructures of the pathological protein depositions, structures forming pathological protein depositions, structures corresponding to pathological protein depositions as targets is measured in the presence of suspected active substances. As an alternative, association of substructures of pathological protein depositions, structures forming pathological protein depositions, structures corresponding to pathological protein depositions and/or pathological protein depositions to substructures of the pathological protein depositions, structures forming pathological protein depositions, structures corresponding to pathological protein depositions as targets is first performed, and then the reversal of the association under the action of suspected active substances is observed. Then, those compounds are identified as active substances which are capable of causing a reversal of the association in a significant way. […]

T1 sequence (P05067 672-713 limits assumed): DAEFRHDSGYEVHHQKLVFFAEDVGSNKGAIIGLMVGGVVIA

**Q.** Nc1c(/N=N/c2ccc(-c3ccc(/N=N/c4cc(S(=O)(=O)O)c5ccccc5c4N)cc3)cc2)cc(S(=O)(=O)O)c2ccccc12 [Congo red] was tested. Which “detectable peaks as compared to the control batch” value (1 mM Congo red, FCS, 20 measurements each with one minute of measuring time, FIG. 13 bottom vs top) did it give?
**A.** The value was “significant decrease of the detectable peaks”.

**Q.** What about the activity at 1000 µM (read-out: decrease of the signal intensity of the homologous association to) of the same molecule?
**A.** Its activity at 1000 µM is 20%.

Reference: US20020042121A1, “METHOD FOR MEASURING THE ASSOCIATION OF SUBSTRUCTURES OF PATHOLOGICAL PROTEIN DEPOSITIONS” (priority 1997, published 2002)
